Laboratory results reported in patent US12097193B2, “Methods for the administration of COMT inhibitors” (BIAL—PORTELA & CA, S.A., priority 2018, dated 2024).
Like-named read-outs stand apart in the source and are kept apart here.

Key:
OATP1B1 = target: T1, OATP1B1 (Homo sapiens, UniProt Q9Y6L6); details: in vitro; cited from earlier work
T1 sequence (Q9Y6L6 1-691): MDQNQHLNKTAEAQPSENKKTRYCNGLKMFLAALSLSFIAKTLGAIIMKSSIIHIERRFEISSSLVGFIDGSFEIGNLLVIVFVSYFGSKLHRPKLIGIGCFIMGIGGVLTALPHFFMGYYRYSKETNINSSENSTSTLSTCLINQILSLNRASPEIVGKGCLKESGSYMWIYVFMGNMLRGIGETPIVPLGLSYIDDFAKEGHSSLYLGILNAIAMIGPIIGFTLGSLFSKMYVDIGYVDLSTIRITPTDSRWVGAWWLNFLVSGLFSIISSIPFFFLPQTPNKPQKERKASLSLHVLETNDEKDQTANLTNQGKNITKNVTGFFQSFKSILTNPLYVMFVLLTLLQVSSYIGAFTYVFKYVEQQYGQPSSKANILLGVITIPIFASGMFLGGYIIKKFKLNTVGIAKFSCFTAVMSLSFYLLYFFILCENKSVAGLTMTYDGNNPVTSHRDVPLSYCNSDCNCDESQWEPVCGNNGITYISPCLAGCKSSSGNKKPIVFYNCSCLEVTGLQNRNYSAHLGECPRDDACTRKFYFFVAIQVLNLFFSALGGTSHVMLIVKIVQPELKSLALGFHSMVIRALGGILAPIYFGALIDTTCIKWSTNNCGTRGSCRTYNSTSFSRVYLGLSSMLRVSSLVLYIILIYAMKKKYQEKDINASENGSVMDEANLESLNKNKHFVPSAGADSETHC

OATP1B3 = target: T2, OATP1B3 (Homo sapiens, UniProt Q9NPD5); details: in vitro; cited from earlier work
T2 sequence (Q9NPD5 1-702): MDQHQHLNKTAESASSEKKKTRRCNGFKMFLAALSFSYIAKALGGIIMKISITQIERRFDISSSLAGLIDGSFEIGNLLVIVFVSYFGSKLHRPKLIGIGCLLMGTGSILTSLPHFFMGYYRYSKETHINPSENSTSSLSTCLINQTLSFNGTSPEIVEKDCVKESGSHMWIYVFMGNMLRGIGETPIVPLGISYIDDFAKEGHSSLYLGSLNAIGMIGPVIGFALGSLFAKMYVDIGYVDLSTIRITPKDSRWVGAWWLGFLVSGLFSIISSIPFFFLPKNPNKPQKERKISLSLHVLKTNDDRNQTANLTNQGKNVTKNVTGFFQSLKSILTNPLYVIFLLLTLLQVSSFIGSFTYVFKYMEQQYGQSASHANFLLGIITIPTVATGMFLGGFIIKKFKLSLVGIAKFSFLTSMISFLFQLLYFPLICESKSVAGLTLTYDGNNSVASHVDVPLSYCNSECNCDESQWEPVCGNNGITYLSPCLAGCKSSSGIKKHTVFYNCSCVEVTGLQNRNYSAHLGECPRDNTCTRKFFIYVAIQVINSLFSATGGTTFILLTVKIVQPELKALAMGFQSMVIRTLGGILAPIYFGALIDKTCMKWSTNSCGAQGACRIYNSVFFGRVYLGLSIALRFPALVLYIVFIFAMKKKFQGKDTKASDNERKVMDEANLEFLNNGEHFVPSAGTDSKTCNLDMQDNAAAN

[1] = target: P-gp/MDR1 efflux transporter (Homo sapiens, UniProt P08183); details: in vitro; cited from earlier work
BCRP = target: T3, BCRP (Homo sapiens, UniProt Q9UNQ0); details: in vitro; cited from earlier work
T3 sequence (Q9UNQ0 1-655): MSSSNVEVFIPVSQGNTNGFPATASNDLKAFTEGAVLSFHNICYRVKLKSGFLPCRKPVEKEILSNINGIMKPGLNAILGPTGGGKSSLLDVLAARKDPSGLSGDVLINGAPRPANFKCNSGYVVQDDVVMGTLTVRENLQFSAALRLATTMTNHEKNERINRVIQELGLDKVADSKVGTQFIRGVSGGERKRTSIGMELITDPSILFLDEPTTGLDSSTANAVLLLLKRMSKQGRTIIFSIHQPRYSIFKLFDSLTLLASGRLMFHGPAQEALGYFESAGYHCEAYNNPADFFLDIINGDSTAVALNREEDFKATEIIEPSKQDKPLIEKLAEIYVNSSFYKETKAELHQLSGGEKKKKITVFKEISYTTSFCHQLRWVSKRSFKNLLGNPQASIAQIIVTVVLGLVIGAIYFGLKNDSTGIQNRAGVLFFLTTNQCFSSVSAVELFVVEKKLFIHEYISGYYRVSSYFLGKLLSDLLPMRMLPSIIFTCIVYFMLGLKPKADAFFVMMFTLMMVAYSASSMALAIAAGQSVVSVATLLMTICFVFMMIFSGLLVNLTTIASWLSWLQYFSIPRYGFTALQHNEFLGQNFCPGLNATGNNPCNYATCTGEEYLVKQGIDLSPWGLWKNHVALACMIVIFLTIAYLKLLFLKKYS

[2] = Phase 1 two-period crossover study of the effect of quinidine on the pharmacokinetics of opicapone (plasma PK); assay type: in vivo, human; details: for AUC(0-inf) / AUC(0-t) / Cmax / half-life: plasma, 50 mg
Description: A Phase 1, Randomized, Open-Label, Two-Period Crossover Study to Assess the Effect of Quinidine on the Pharmacokinetics of Opicapone (OPC) in Healthy Subjects
This was a Phase 1, randomized, open-label, 2-period crossover drug interaction study of the effect of quinidine on the PK of OPC in healthy subjects. A total of 20 subjects (10 males and 10 females) were randomized to 1 of 2 treatment sequences (5 males and 5 females per sequence) as depicted in the table below. Randomization to treatment sequence were stratified by gender. Enrolled subjects received a single dose of each of the following treatments under fasted conditions: OPC 50 mg and quinidine 600 mg plus OPC 50 mg (OPC will be administered 1 hour after quinidine). There was be a 14-day washout between the doses in each treatment period.
Subjects fasted overnight for at least 10 hours before OPC dosing on Day 1 and continued to fast for an additional 4 hours after OPC dosing.
Blood samples for the assessment of plasma concentrations of OPC and its metabolites were collected within 30 minutes predose and approximately 0.5, 1, 1.5, 2, 3, 4, 6, 8, 10, 12, 24, 48, 72, 96, and 120 hours postdose. The PK parameters to be calculated included the following for OPC and its metabolites:
Blood samples for the assessment of plasma concentrations of OPC and its metabolites were collected within 30 minutes predose and approximately 0.5, 1, 1.5, 2, 3, 4, 6, 8, 10, 12, 24, 48, 72, 96, and 120 hours postdose.
The following plasma PK parameters were calculated only for OPC: • Apparent systemic clearance after oral administration (CL/F). • Apparent volume of distribution during the terminal phase after oral administration (Vz/F).
PK parameters for OPC and its metabolites were calculated using noncompartmental methods. […] Safety data will be summarized with descriptive statistics.
Pharmacokinetic parameters (AUC0-inf, AUC0-t, and Cmax) for Opicapone were natural log-transformed prior to analysis and evaluated separately using a linear mixed effects model with fixed effects terms for sequence, period, and treatment. […] CV %=SQRT[exp(s^2)−1]×100 and ‘s’ is the standard deviation of the log-transformed values.

Chain of P-gp/MDR1 efflux transporter (P08183 whole entry): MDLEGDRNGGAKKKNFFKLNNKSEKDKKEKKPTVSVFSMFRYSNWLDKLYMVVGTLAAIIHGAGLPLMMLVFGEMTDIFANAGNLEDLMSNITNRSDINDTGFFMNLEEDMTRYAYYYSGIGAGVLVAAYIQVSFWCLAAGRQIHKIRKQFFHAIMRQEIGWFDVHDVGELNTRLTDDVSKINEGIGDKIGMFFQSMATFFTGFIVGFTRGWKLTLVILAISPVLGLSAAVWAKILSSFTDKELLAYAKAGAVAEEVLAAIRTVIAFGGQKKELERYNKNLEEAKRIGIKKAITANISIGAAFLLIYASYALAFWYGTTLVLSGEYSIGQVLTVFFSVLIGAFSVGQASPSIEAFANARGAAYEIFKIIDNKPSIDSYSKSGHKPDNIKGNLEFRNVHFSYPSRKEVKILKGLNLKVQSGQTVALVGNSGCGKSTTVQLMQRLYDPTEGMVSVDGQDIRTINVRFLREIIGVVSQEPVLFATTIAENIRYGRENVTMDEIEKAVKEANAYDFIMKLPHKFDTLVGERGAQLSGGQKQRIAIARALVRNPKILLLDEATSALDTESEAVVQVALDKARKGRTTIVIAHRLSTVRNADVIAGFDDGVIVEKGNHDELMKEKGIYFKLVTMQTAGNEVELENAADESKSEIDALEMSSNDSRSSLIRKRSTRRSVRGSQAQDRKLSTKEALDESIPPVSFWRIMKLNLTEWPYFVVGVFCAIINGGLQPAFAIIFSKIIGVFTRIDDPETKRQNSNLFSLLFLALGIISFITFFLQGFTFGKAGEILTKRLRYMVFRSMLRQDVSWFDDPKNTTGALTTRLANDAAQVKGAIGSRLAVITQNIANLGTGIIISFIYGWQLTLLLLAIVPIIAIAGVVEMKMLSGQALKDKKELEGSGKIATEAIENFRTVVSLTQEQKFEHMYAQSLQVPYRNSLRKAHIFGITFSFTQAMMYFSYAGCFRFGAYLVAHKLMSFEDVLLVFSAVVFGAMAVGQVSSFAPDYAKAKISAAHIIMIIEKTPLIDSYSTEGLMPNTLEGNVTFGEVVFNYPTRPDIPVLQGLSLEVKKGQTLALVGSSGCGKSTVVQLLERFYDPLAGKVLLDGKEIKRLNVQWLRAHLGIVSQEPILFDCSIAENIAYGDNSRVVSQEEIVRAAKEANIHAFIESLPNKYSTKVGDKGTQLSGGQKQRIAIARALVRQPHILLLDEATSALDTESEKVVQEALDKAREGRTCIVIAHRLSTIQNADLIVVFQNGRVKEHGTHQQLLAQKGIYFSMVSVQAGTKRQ

SMILES: Cc1c(Cl)c(C)[n+]([O-])c(Cl)c1-c1noc(-c2cc(OS(=O)(=O)O)c(O)c([N+](=O)[O-])c2)n1 [BIA 9-1103]
- transported by OATP1B1 (OATP1B1): transported
- transported by OATP1B3 (OATP1B3): transported
- efflux transported by P-gp (P-gp/MDR1 substrate) [1]: not a substrate
- efflux transported by BCRP (BCRP): efflux transported

SMILES: Cc1c(Cl)c(C)[n+]([O-])c(Cl)c1-c1noc(-c2cc(O)c(O)c([N+](=O)[O-])c2)n1 [OPC, 5-[3-(2,5-dichloro-4,6-dimethyl-1-oxy-pyridin-3-yl)-[1,2,4]oxadiazol-5-yl]-3-nitrobenzene-1,2-diol]
- Tmax ([2]; both sexes, human, oral, opicapone in plasma, healthy subjects, fasted, single dose OPC 50 mg, Median): 91.8 min
- AUC(0-inf) ([2]; both sexes, human, oral, opicapone in plasma, healthy subjects, fasted, single dose OPC 50 mg, Geometric Mean (descriptive), read-out: AUC(0-inf), Geometric Mean): 2060 ng·h/mL
- AUC(0-t) ([2]; both sexes, human, oral, opicapone in plasma, healthy subjects, fasted, single dose OPC 50 mg, Geometric Mean (descriptive), read-out: AUC(0-last), Geometric Mean): 1960 ng·h/mL
- Cmax ([2]; both sexes, human, oral, opicapone in plasma, healthy subjects, fasted, single dose OPC 50 mg, Geometric Mean (descriptive), read-out: Cmax, Geometric Mean): 766 ng/mL
- half-life ([2]; both sexes, human, oral, opicapone in plasma, healthy subjects, fasted, single dose OPC 50 mg, Geometric Mean (descriptive), read-out: t½, Geometric Mean (converted)): 53.2 min
- AUC(0-inf) ([2]; both sexes, human, oral, opicapone in plasma, healthy subjects, fasted, single dose OPC 50 mg, Mean, read-out: AUC(0-inf), Mean): 2140 ng·h/mL
- AUC(0-t) ([2]; both sexes, human, oral, opicapone in plasma, healthy subjects, fasted, single dose OPC 50 mg, Mean, read-out: AUC(0-last), Mean): 2040 ng·h/mL
- Cmax ([2]; both sexes, human, oral, opicapone in plasma, healthy subjects, fasted, single dose OPC 50 mg, Mean, read-out: Cmax, Mean): 804 ng/mL
- half-life ([2]; both sexes, human, oral, opicapone in plasma, healthy subjects, fasted, single dose OPC 50 mg, Mean, read-out: t½, Mean (converted)): 55.1 min
- AUC(0-inf) ([2]; both sexes, human, oral, opicapone in plasma, healthy subjects, fasted, single dose OPC 50 mg, Median, read-out: AUC(0-inf), Median): 2020 ng·h/mL
- AUC(0-t) ([2]; both sexes, human, oral, opicapone in plasma, healthy subjects, fasted, single dose OPC 50 mg, Median, read-out: AUC(0-last), Median): 1940 ng·h/mL
- Cmax ([2]; both sexes, human, oral, opicapone in plasma, healthy subjects, fasted, single dose OPC 50 mg, Median, read-out: Cmax, Median): 782 ng/mL
- half-life ([2]; both sexes, human, oral, opicapone in plasma, healthy subjects, fasted, single dose OPC 50 mg, Median, read-out: t½, Median (converted)): 55.9 min
- AUC(0-inf) ([2]; both sexes, human, oral, opicapone, geometric mean from linear mixed effects model, OPC 50 mg, healthy subjects, read-out: AUC0-inf, GM): 2030 ng·h/mL
- AUC(0-t) ([2]; both sexes, human, oral, opicapone, geometric mean from linear mixed effects model, OPC 50 mg, healthy subjects, read-out: AUC0-t, GM): 1960 ng·h/mL
- Cmax ([2]; both sexes, human, oral, opicapone, geometric mean from linear mixed effects model, OPC 50 mg, healthy subjects, read-out: Cmax, GM): 766 ng/mL
- decrease in opicapone exposure ([2]; in those also being administered quinidine): approximately 30%
- Tlag, Median ([2]; opicapone in plasma, healthy subjects, fasted, single dose OPC 50 mg, Median): 0.00 h
- transported by OATP1B1 (OATP1B1): not transported
- transported by OATP1B3 (OATP1B3): transported
- efflux transported by P-gp (P-gp/MDR1 substrate) [1]: efflux transported
- efflux transported by BCRP (BCRP): efflux transported
